Laboratory results: paper PMC3531619 (Angewandte Chemie (International Ed. in English), 2012)
Where no end group is shown, it is not given here. [ ]: non-standard residue; d: D form. Bpa = N[C@@H](Cc1ccc(C(=O)c2ccccc2)cc1)C(=O)O

Tests used:
PP1 = assay: Streptavidin pull-down of PP1 with biotinylated peptides from cell lysates; type: binding, human; conditions: HEK293 and U2OS cell lysates, streptavidin-coated Sepharose beads, immunoblot
PP2A = assay: Streptavidin pull-down of PP2A with biotinylated peptides from cell lysates; type: binding, human; conditions: U2OS cell lysates, streptavidin beads, immunoblot
U2OS cells = assay: Cell viability assay; type: cell-based, human; conditions: conditions of the in-cell experiments

Substance	Co-sedimentation of PP1 in pull-down (PP1)	Co-precipitation of PP2A in pull-down (PP2A)	Cytotoxicity under the experimental conditions (U2OS cells)
RRKRPKRKRKNARATAAEAAEII [PDP2m]	co-precipitated neither PP1 nor PP2A	co-precipitated neither PP1 nor PP2A	–
RRKRPKRKRKNARATA[Bpa]EAAEII [PDP3m]	–	–	neither PDP3 nor PDP3m showed any cytotoxicity
